The source of these data is ChEMBL document CHEMBL4145662, “Novel Nonsteroidal Progesterone Receptor (PR) Antagonists with a Phenanthridinone Skeleton” (ACS Med Chem Lett, 2018).

The structures appear in SMILES notation.

In the first data set the target is T1, Progesterone receptor (Homo sapiens, UniProt P06401).
T1 sequence (P06401 whole entry): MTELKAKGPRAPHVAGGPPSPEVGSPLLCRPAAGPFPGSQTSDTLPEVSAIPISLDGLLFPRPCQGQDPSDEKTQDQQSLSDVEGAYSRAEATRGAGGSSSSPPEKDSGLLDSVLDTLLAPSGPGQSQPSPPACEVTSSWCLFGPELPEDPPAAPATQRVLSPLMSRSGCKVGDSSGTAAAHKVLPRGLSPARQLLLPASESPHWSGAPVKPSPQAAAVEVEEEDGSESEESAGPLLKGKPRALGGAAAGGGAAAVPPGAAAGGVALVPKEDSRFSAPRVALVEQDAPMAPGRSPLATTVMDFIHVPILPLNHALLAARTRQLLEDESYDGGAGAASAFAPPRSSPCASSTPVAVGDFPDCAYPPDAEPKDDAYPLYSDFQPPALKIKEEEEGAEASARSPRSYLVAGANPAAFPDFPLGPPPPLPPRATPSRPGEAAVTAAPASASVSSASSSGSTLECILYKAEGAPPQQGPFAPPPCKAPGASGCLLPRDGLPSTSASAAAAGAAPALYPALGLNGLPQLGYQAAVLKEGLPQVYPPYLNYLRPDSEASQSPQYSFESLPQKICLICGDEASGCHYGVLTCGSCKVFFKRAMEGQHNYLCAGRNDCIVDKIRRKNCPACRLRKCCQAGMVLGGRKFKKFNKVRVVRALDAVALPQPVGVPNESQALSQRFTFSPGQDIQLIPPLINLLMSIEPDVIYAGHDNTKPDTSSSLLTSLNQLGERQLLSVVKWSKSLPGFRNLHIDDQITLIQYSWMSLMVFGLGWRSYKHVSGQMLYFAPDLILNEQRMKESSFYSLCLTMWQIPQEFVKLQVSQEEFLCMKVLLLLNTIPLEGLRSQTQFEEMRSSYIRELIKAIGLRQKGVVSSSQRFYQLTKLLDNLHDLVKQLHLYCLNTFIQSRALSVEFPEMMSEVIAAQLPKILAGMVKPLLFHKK
In words: Antagonist activity at PR in human T47D cells assessed as inhibition of progesterone-induced alkaline phosphatase activity measured after 24 hrs. Type of data set: cell-based.
On to `CCCCn1c(=O)c2ccccc2c2cc(C(O)(C(F)(F)F)C(F)(F)F)cc(OC)c21`, for which the IC50 is 560 nM. On to `Cn1c(=O)c2ccccc2c2cc(C(O)(C(F)(F)F)C(F)(F)F)ccc21`, for which the IC50 amounted to 340 nM. On to `CCCCn1c(=O)c2ccccc2c2cc(CO)ccc21`, for which the IC50 worked out at 8600 nM.

Take `CCCCn1c(=O)c2ccccc2c2c(OC)c(C(O)(C(F)(F)F)C(F)(F)F)ccc21`: the IC50 came to 4000 nM.

On to `O=c1[nH]c2ccc(C(O)(C(F)(F)F)C(F)(F)F)cc2c2cc(F)ccc12`, for which the IC50 amounted to 1000 nM. The same measure, in the same setting: under `CCCn1c(=O)c2ccccc2c2cc(C(O)(C(F)(F)F)C(F)(F)F)ccc21` stands 3800 nM; under `O=S(=O)(Nc1ccc(Oc2ccccc2)cc1)c1cccc(C(F)(F)F)c1`, 107 nM; under `CCCCn1c(=O)c2ccc(OC)cc2c2cc(C(O)(C(F)(F)F)C(F)(F)F)ccc21`, 5800 nM. `CCCCn1c(=O)c2ccccc2c2cc(C(O)(C(F)(F)F)C(F)(F)F)c(OC)cc21`: the IC50 came out at 410 nM. Same read-out and setting: under `O=c1[nH]c2ccc(C(O)(C(F)(F)F)C(F)(F)F)cc2c2cccc(F)c12` stands 730 nM; under `CCCCn1c(=O)c2cc(OC)ccc2c2cc(C(O)(C(F)(F)F)C(F)(F)F)ccc21`, 1100 nM; under `Cn1c(C#N)ccc1-c1ccc2oc(=O)ccc2c1`, 123 nM. The same measure, in the same setting: the result for `CCCCn1c(=O)c2ccccc2c2cc(C(C)(C)C)ccc21` reads 8300 nM. The same measure, in the same setting: the result for `CCCCn1c(=O)c2c(OC)cccc2c2cc(C(O)(C(F)(F)F)C(F)(F)F)ccc21` reads 12000 nM; that for `CCCCn1c(=O)c2ccccc2c2cc(CC)ccc21`, 7800 nM; that for `Cc1cc(C(O)(C(F)(F)F)C(F)(F)F)cc2c3ccccc3c(=O)n(C)c12`, 180 nM. As for `CCn1c(=O)c2ccccc2c2cc(C(O)(C(F)(F)F)C(F)(F)F)ccc21`, the IC50 turned out to be 1400 nM. Still for that read-out and setting: under `CCCCn1c(=O)c2ccccc2c2ccccc21` stands 7100 nM; under `O=c1[nH]c2ccc(C(O)(C(F)(F)F)C(F)(F)F)cc2c2ccccc12`, 780 nM. On the same count and under the same terms, under `CCc1cc(C(O)(C(F)(F)F)C(F)(F)F)cc2c1[nH]c(=O)c1ccccc12` stands 210 nM. Same read-out and setting: under `O=c1[nH]c2ccc(C(O)(C(F)(F)F)C(F)(F)F)cc2c2ccc(F)cc12` stands 310 nM; under `CCCc1cc(C(O)(C(F)(F)F)C(F)(F)F)cc2c1[nH]c(=O)c1ccccc12`, 360 nM. As to `COc1cc(C(O)(C(F)(F)F)C(F)(F)F)cc2c1[nH]c(=O)c1ccccc12`, the IC50 was found to be 270 nM. On the same count and under the same terms, the result for `CCCCn1c(=O)c2ccccc2c2cc(C)ccc21` reads 7900 nM; that for `O=c1[nH]c2c(F)cc(C(O)(C(F)(F)F)C(F)(F)F)cc2c2ccccc12`, 130 nM. With `CCCCCCCCCn1c(=O)c2ccccc2c2cc(C(O)(C(F)(F)F)C(F)(F)F)ccc21`, the IC50 stood at 10000 nM. As for `CCCCn1c(=O)c2cccc(OC)c2c2cc(C(O)(C(F)(F)F)C(F)(F)F)ccc21`, the IC50 came out at 2700 nM. On the same count and under the same terms, under `CCCCCCn1c(=O)c2ccccc2c2cc(C(O)(C(F)(F)F)C(F)(F)F)ccc21` stands 2500 nM; under `CCCCn1c(=O)c2ccccc2c2cc(C(O)(C(F)(F)F)C(F)(F)F)ccc21`, 1200 nM.

A further data set deals with T1, Progesterone receptor. In words: Agonist activity at PR in human T47D cells at 10 uM. Type of data set: cell-based.
On to `O=S(=O)(Nc1ccc(Oc2ccccc2)cc1)c1cccc(C(F)(F)F)c1`, for which the Activity entry is “Not Active”. Same read-out and setting: the result for `Cn1c(C#N)ccc1-c1ccc2oc(=O)ccc2c1` reads “Not Active”; that for `CC#C[C@]1(O)CC[C@H]2[C@@H]3CCC4=CC(=O)CCC4=C3[C@@H](c3ccc(N(C)C)cc3)C[C@@]21C` [MIFEPRISTONE], “Not Active”.
